The assay concerns oxidative stress. Nature of the assay: Overall effect of the antioxidant dietary complement on oxidative stress biomarkers in dogs. The assay is classed as in vivo. Particulars: provided alone. The source says: The evaluated biomarkers let us assure that the provision of antioxidants, particularly the mixtures of at least two antioxidants selected from Resveratrol. Pterostilbene and Vitamin E, as a dietary complement had the following effects. 1) decrease of oxidative stress, 2) highly significant decrease in the loss of skeletal muscle (CPK), 3) highly significant decrease in the loss of bone mass (ALP), and 4) decrease of 12-15% in the loss of (8(OH)dG) DNA. […] It is also possible to observe that the Vitamin E that was provided alone produced a lesser effect, compared to that of the mixture of two antioxidants that were jointly provided.

On to `CC(=O)Oc1c(C)c(C)c2c(c1C)CCC(C)(CCCC(C)CCCC(C)CCCC(C)C)O2` (racemic) [Vitamin E, DL-alpha tocopherol acetate], for which the “effect on the biomarkers compared to the mixture of two antioxidants” value is on record as “lesser effect”.
